# ChEMBL document CHEMBL5649169 (ChemMedChem, 2018)
# How the values were obtained:
# [1] = target: Ephrin type-A receptor 8 (Homo sapiens, UniProt P29322); experiment: Inhibition of Nano Luc-fused full length C-terminal EPHA8 (unknown origin) expressed in HEK293T cells using NanoGlo as substrate incubated for 2 hrs in presence of tracer by NanoBRET assay; assay type: cell-based
# [2] = target: AP-3 complex subunit beta-1 (Homo sapiens) (UniProt O00203); further: assay method not described here
# [3] = target: Cilia- and flagella-associated protein 410 (Homo sapiens) (UniProt O43822); further: assay method not described here
# [4] = target: C2 domain-containing protein 5 (Homo sapiens) (UniProt Q86YS7); further: assay method not described here
# [5] = target: Coiled-coil domain-containing protein 22 (Homo sapiens) (UniProt O60826); further: assay method not described here
# Coiled-coil domain-containing protein 22 (Homo sapiens), sequence (O60826 whole entry, the tested form may be a part): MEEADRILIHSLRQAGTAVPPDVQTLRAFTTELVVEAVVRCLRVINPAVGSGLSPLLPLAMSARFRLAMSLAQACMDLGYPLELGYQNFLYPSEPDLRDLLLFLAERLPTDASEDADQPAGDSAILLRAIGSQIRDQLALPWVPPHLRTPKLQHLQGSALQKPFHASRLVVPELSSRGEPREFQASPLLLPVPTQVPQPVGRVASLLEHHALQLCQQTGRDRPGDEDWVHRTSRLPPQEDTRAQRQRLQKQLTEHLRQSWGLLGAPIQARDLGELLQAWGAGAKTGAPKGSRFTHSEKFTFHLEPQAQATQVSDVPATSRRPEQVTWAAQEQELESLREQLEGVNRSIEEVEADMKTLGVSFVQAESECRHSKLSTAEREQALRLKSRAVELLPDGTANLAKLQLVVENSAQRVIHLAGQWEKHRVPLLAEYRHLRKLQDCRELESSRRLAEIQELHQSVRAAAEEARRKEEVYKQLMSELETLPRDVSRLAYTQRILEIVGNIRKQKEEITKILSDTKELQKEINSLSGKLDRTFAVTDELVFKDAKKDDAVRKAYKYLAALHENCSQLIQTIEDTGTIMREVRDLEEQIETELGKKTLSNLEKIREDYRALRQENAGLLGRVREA
# [6] = target: T-complex protein 1 subunit epsilon (Homo sapiens) (UniProt P48643); further: assay method not described here
# [7] = target: Cell division cycle protein 23 homolog (Homo sapiens) (UniProt Q9UJX2); further: assay method not described here
# [8] = target: Eukaryotic translation initiation factor 3 subunit B (Homo sapiens) (UniProt P55884); further: assay method not described here
# Eukaryotic translation initiation factor 3 subunit B (Homo sapiens), sequence (P55884 whole entry): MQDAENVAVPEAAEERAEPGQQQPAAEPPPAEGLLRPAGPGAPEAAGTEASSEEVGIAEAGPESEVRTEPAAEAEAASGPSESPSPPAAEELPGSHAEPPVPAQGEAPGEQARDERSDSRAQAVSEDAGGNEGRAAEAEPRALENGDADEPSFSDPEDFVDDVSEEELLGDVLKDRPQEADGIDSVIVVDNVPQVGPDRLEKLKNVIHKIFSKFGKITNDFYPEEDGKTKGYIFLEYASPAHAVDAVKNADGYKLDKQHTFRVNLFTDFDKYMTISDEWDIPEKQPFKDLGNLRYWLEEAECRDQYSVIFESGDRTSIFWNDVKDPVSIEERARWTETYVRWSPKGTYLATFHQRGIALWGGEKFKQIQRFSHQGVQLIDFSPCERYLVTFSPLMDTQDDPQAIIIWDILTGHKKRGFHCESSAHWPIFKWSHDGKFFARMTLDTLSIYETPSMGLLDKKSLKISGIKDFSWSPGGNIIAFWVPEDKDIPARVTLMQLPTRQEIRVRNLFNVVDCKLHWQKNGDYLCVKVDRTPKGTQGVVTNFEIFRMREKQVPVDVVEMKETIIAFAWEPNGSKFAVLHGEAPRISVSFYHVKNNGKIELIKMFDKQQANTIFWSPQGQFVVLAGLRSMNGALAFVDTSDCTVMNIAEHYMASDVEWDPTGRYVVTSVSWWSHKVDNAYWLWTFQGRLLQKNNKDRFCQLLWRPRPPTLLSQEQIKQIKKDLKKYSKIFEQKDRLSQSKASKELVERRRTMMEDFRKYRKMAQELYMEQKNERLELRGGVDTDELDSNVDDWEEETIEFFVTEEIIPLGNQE
# [9] = target: Tyrosine-protein kinase CSK (Homo sapiens) (UniProt P41240); further: assay method not described here
# [10] = target: Dipeptidyl peptidase 1 (Homo sapiens) (UniProt P53634); further: assay method not described here
# [11] = target: Cytoplasmic FMR1-interacting protein 1 (Homo sapiens) (UniProt Q7L576); further: assay method not described here
# [12] = target: ELAV-like protein 1 (Homo sapiens) (UniProt Q15717); further: assay method not described here
# [13] = target: Bifunctional glutamate/proline--tRNA ligase (Homo sapiens) (UniProt P07814); further: assay method not described here
# [14] = target: Erlin-1 (Homo sapiens) (UniProt O75477); further: assay method not described here
# [15] = target: Serine/threonine-protein kinase/endoribonuclease IRE2 (Homo sapiens) (UniProt Q76MJ5); further: assay method not described here
# [16] = target: Trifunctional enzyme subunit alpha, mitochondrial (Homo sapiens) (UniProt P40939); further: assay method not described here
# [17] = target: Heat shock 70 kDa protein 1A/1B (Homo sapiens) (UniProt P0DMV8+P0DMV9); further: assay method not described here
# [18] = target: Isoleucine--tRNA ligase, cytoplasmic (Homo sapiens) (UniProt P41252); further: assay method not described here
# [19] = target: Isocitrate dehydrogenase [NADP], mitochondrial (Homo sapiens) (UniProt P48735); further: assay method not described here
# [20] = target: Scaffold protein ILK (Homo sapiens) (UniProt Q13418); further: assay method not described here
# Scaffold protein ILK (Homo sapiens), sequence (Q13418 whole entry): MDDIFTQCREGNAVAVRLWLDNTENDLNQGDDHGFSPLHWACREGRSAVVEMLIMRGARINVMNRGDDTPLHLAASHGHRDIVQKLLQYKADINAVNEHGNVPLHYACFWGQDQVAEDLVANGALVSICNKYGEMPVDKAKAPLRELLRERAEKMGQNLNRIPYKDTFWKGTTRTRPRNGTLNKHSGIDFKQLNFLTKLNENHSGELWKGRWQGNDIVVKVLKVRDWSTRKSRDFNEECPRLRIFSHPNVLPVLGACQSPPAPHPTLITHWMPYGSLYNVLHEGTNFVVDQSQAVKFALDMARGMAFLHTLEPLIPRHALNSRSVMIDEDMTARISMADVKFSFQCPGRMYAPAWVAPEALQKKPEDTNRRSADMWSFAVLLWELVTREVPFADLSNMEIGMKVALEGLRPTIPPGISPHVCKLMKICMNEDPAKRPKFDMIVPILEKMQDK
# [21] = target: Importin-9 (Homo sapiens) (UniProt Q96P70); further: assay method not described here
# Importin-9 (Homo sapiens), sequence (Q96P70 whole entry): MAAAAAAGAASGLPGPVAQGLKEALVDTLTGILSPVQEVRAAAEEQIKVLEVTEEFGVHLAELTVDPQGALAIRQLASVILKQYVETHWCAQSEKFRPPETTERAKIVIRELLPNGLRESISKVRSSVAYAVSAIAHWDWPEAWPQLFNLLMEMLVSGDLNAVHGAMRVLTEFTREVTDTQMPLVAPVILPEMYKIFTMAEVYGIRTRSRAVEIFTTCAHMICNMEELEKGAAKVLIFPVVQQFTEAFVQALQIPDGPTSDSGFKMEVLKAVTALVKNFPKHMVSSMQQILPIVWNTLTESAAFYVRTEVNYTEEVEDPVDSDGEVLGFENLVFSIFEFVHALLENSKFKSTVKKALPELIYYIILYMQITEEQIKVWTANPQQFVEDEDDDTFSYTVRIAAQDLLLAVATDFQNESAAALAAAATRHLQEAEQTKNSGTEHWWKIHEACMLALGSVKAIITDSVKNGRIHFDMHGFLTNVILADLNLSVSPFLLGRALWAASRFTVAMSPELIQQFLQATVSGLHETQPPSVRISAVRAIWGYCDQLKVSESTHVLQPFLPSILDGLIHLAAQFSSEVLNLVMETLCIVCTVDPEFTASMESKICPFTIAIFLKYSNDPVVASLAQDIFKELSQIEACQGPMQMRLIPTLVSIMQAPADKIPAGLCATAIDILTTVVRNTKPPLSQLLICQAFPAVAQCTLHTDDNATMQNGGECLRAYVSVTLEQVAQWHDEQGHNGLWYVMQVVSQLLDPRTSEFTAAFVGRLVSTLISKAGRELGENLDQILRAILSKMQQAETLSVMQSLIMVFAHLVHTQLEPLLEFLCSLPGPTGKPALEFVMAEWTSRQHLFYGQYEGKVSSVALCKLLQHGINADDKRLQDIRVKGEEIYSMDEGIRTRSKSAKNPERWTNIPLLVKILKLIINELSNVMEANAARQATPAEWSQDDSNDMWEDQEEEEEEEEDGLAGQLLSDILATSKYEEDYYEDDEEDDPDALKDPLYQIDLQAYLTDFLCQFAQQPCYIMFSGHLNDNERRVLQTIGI
# [22] = target: Interleukin-1 receptor-associated kinase 1 (Homo sapiens) (UniProt P51617); further: assay method not described here
# [23] = target: L-lactate dehydrogenase A chain (Homo sapiens) (UniProt P00338); further: assay method not described here
# [24] = target: Mitogen-activated protein kinase 3 (Homo sapiens) (UniProt P27361); further: assay method not described here
# Mitogen-activated protein kinase 3 (Homo sapiens), sequence (P27361 whole entry): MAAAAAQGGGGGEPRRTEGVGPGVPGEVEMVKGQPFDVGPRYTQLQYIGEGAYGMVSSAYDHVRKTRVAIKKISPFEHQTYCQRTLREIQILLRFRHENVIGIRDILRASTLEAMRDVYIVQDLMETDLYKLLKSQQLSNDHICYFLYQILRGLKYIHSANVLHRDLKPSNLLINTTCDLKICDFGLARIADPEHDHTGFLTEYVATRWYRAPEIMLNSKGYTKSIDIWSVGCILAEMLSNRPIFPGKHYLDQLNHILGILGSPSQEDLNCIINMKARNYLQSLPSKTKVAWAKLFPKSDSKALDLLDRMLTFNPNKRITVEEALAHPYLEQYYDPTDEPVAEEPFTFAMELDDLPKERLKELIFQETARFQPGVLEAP
# [25] = target: Hepatocyte growth factor receptor (Homo sapiens) (UniProt P08581); further: assay method not described here
# [26] = target: Puromycin-sensitive aminopeptidase (Homo sapiens) (UniProt P55786); further: assay method not described here
# [27] = target: RNA cytosine C(5)-methyltransferase NSUN2 (Homo sapiens) (UniProt Q08J23); further: assay method not described here
# [28] = target: ADP-sugar pyrophosphatase (Homo sapiens) (UniProt Q9UKK9); further: assay method not described here
# [29] = target: cAMP-dependent protein kinase catalytic subunit gamma (Homo sapiens) (UniProt P22612); further: assay method not described here
# [30] = target: Protein kinase C beta type (Homo sapiens) (UniProt P05771); further: assay method not described here
# [31] = target: Serine/threonine-protein kinase D3 (Homo sapiens) (UniProt O94806); further: assay method not described here
# [32] = target: Proteasome subunit alpha type-6 (Homo sapiens) (UniProt P60900); further: assay method not described here
# Proteasome subunit alpha type-6 (Homo sapiens), sequence (P60900 whole entry): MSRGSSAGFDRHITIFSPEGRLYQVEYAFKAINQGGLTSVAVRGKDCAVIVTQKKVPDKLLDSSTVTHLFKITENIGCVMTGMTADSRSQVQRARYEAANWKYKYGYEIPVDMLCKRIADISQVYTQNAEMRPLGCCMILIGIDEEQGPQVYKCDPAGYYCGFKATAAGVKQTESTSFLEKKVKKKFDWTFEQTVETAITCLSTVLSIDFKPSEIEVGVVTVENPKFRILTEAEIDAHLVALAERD
# [33] = target: 26S proteasome non-ATPase regulatory subunit 8 (Homo sapiens) (UniProt P48556); further: assay method not described here
# [34] = target: Large ribosomal subunit protein eL15 (Homo sapiens) (UniProt P61313); further: assay method not described here
# [35] = target: Large ribosomal subunit protein uL24 (Homo sapiens) (UniProt P61254); further: assay method not described here
# [36] = target: Large ribosomal subunit protein P1 (Homo sapiens) (UniProt P05386); further: assay method not described here
# Large ribosomal subunit protein P1 (Homo sapiens), sequence (P05386 whole entry): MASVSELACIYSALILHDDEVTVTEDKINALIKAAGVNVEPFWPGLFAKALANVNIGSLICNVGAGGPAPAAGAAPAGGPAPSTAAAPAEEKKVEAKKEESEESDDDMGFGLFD
# [37] = target: Syndecan-1 (Homo sapiens) (UniProt P18827); further: assay method not described here
# Syndecan-1 (Homo sapiens), sequence (P18827 whole entry): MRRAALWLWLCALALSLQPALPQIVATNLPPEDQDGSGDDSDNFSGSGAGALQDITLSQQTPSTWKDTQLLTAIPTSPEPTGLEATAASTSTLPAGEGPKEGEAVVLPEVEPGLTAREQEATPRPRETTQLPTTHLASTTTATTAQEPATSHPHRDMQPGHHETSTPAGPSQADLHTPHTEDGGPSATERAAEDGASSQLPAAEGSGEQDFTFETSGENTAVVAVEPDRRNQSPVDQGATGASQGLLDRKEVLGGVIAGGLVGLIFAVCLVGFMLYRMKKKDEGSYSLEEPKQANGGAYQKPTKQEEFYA
# [38] = target: tRNA (guanosine(18)-2'-O)-methyltransferase TARBP1 (Homo sapiens) (UniProt Q13395)
# [39] = target: Transcription elongation regulator 1 (Homo sapiens) (UniProt O14776); further: assay method not described here
# [40] = target: Telomere length regulation protein TEL2 homolog (Homo sapiens) (UniProt Q9Y4R8); further: assay method not described here
# [41] = target: Thioredoxin-related transmembrane protein 1 (Homo sapiens) (UniProt Q9H3N1); further: assay method not described here
# [42] = target: Transcription intermediary factor 1-beta (Homo sapiens) (UniProt Q13263); further: assay method not described here
# [43] = target: TELO2-interacting protein 1 homolog (Homo sapiens) (UniProt O43156); further: assay method not described here
# [44] = target: Gamma-tubulin complex component 2 (Homo sapiens) (UniProt Q9BSJ2); further: assay method not described here
# [45] = target: E3 ubiquitin-protein ligase UBR4 (Homo sapiens) (UniProt Q5T4S7); further: assay method not described here
# Wherever ED50 is given: assay method not described here.
# Ephrin type-A receptor 8, sequence (P29322 whole entry, the tested form may be a part): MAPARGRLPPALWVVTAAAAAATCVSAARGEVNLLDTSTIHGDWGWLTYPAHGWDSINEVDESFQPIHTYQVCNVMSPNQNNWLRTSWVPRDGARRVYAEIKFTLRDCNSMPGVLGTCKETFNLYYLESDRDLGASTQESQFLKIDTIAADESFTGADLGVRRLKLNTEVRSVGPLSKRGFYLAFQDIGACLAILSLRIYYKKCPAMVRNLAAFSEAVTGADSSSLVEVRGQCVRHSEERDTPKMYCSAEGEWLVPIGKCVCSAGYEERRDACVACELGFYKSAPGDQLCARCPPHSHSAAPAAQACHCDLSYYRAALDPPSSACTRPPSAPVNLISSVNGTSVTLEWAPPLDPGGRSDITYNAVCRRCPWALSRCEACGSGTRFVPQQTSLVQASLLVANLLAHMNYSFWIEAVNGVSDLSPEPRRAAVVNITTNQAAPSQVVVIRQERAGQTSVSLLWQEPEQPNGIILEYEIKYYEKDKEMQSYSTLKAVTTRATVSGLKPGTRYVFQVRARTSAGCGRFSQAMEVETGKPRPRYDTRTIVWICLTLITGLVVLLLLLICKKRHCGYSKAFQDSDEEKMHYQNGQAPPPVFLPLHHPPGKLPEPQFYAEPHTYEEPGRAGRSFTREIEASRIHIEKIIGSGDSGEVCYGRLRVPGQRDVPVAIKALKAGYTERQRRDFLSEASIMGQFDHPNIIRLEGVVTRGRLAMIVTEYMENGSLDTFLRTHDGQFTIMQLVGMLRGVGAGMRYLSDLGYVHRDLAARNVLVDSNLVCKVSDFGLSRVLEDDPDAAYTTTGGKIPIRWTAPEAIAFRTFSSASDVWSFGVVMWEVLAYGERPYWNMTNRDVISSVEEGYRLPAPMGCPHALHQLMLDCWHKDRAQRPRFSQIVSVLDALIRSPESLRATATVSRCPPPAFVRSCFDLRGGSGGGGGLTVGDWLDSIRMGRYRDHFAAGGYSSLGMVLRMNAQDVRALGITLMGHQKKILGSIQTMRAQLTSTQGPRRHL
smiles,measurement,setting,value
Cc1ccc(C(=O)Nc2cccc(C(F)(F)F)c2)cc1Nc1nc(-c2cccnc2)nc2c1cnn2C,IC50,[1],0.0012 µM
same,ED50,[2],0.558 µM
same,ED50,[3],46.8 µM
same,ED50,[4],0.0177 µM
same,ED50,[5],2.25 µM
same,ED50,[6],0.000216 µM
same,ED50,[7],0.0535 µM
same,ED50,[8],9.87 µM
same,ED50,[9],4.52 µM
same,ED50,[10],0.0113 µM
same,ED50,[11],0.00564 µM
same,ED50,[12],0.0107 µM
same,ED50,[13],0.0324 µM
same,ED50,[14],0.367 µM
same,ED50,[15],2.7 µM
same,ED50,[16],0.877 µM
same,ED50,[17],0.181 µM
same,ED50,[18],0.0944 µM
same,ED50,[19],0.00187 µM
same,ED50,[20],57.4 µM
same,ED50,[21],19.2 µM
same,ED50,[22],14.6 µM
same,ED50,[23],0.00901 µM
same,ED50,[24],0.0457 µM
same,ED50,[25],1.75 µM
same,ED50,[26],0.0863 µM
same,ED50,[27],48.7 µM
same,ED50,[28],3.76 µM
same,ED50,[29],1.23 µM
same,ED50,[30],10.9 µM
same,ED50,[31],0.0978 µM
same,ED50,[32],3.6 µM
same,ED50,[33],8.9 µM
same,ED50,[34],0.425 µM
same,ED50,[35],6.18 µM
same,ED50,[36],0.0125 µM
same,ED50,[37],1.77 µM
same,ED50,[38],18.4 µM
same,ED50,[39],732 µM
same,ED50,[40],0.665 µM
same,ED50,[41],219 µM
same,ED50,[42],59.2 µM
same,ED50,[43],4370 µM
same,ED50,[44],0.16 µM
same,ED50,[45],0.00366 µM
Cc1ccc(C(=O)Nc2cccc(C(F)(F)F)c2)cc1Nc1nc(-c2cccnc2)nc2nn(C)cc12,IC50,[1],0.21 µM
same,ED50,[2],0.049 µM
same,ED50,[3],0.574 µM
same,ED50,[4],0.0663 µM
same,ED50,[5],0.598 µM
same,ED50,[6],0.0516 µM
same,ED50,[7],2.59 µM
same,ED50,[8],0.00195 µM
same,ED50,[9],1.86 µM
same,ED50,[10],1.88 µM
same,ED50,[11],2.75 µM
same,ED50,[12],16.5 µM
same,ED50,[13],1.21 µM
same,ED50,[14],0.00442 µM
same,ED50,[15],1.71 µM
same,ED50,[16],0.0595 µM
same,ED50,[17],1.61 µM
same,ED50,[18],4.57 µM
same,ED50,[19],16.8 µM
same,ED50,[20],67.3 µM
same,ED50,[21],0.00375 µM
same,ED50,[22],0.0479 µM
same,ED50,[23],21.8 µM
same,ED50,[24],2500 µM
same,ED50,[25],523 µM
same,ED50,[26],0.0907 µM
same,ED50,[27],0.000187 µM
same,ED50,[28],7.98 µM
same,ED50,[29],0.137 µM
same,ED50,[30],0.875 µM
same,ED50,[31],1.55 µM
same,ED50,[32],0.0409 µM
same,ED50,[33],0.0341 µM
same,ED50,[34],0.0592 µM
same,ED50,[35],0.0162 µM
same,ED50,[36],16600 µM
same,ED50,[37],1.07 µM
same,ED50,[38],63.1 µM
same,ED50,[39],0.0876 µM
same,ED50,[40],0.000314 µM
same,ED50,[41],131 µM
same,ED50,[42],0.0787 µM
same,ED50,[43],0.00118 µM
same,ED50,[44],0.0401 µM
same,ED50,[45],0.593 µM
